Test [1] concerns MV4-11. Briefly: Antiproliferative activity against CRBN knockout human MV4-11 cells assessed as inhibition of cell growth incubated for 7 days by MTS reagent based assay. The test is classed as functional. The settings on record: MV4-11, 168 h. For orientation: Tetrazolium dyes change colour on reduction, which living cells bring about.
Test [2] concerns MV4-11. Briefly: Antiproliferative activity against human MV4-11 cells assessed as inhibition of cell growth incubated for 7 days by MTS reagent based assay. It counts as functional. Conditions: MV4-11, 168 h.
The target in test [3] is T1, Protein cereblon/Bromodomain-containing protein 9 (Homo sapiens, UniProt Q9H8M2+Q96SW2). Description: PROTAC activity at CRBN/BRD9 in human MV4-11 cells assessed as induction of BRD9 degradation at 100 nM by Western blot analysis relative to control. It counts as cell-based. (In western blotting, separated proteins are transferred to a membrane and probed.)
Target sequence in this assay (Q96SW2 whole entry, looked up): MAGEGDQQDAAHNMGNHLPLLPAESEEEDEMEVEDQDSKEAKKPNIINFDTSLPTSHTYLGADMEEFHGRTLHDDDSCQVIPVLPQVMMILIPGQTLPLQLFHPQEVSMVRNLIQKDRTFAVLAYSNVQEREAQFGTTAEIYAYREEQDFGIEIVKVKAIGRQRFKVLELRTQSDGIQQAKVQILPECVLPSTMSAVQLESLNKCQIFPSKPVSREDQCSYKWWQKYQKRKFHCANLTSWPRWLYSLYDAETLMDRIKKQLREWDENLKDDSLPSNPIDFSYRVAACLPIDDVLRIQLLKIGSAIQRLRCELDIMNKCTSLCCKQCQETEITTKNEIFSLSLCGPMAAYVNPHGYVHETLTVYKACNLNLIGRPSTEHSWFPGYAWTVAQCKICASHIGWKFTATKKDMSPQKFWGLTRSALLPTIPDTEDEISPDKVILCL
Target sequence in this assay (Q9H8M2 whole entry, looked up): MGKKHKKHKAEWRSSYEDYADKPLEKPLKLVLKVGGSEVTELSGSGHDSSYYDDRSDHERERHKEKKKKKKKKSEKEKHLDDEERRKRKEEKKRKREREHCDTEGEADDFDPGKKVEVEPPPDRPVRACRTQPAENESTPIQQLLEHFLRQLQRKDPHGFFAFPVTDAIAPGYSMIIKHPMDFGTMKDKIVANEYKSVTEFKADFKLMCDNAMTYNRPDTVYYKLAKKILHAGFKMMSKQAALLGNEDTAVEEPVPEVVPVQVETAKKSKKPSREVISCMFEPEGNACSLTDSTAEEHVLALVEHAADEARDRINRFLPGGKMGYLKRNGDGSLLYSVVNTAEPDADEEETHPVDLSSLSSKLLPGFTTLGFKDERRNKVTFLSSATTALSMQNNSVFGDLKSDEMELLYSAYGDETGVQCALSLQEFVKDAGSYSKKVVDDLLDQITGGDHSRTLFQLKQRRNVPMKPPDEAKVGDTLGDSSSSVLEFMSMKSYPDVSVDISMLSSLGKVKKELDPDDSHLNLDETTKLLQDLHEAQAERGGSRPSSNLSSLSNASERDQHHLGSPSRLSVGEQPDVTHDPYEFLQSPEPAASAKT
For test [4], the target named is T1, Protein cereblon/Bromodomain-containing protein 9. Briefly: PROTAC activity at CRBN/BRD9 in human MV4-11 cells assessed as induction of BRD9 degradation at 1 nM by Western blot analysis relative to control. It counts as cell-based.
Target sequence in this assay (Q96SW2 whole entry, looked up): as the sequence (Q96SW2 whole entry, looked up) above
Target sequence in this assay (Q9H8M2 whole entry, looked up): as the sequence (Q9H8M2 whole entry, looked up) above
For test [5] the target is unchanged. Description: PROTAC activity at CRBN/BRD9 in human MV4-11 cells assessed as induction of BRD9 degradation at 10 nM by Western blot analysis relative to control. It counts as cell-based.
Target sequence in this assay (Q96SW2 whole entry, looked up): as the sequence (Q96SW2 whole entry, looked up) above
Target sequence in this assay (Q9H8M2 whole entry, looked up): as the sequence (Q9H8M2 whole entry, looked up) above
Test [6] concerns Kasumi 1. Description: Antiproliferative activity against human Kasumi 1 cells assessed as inhibition of cell growth incubated for 7 days by MTS reagent based assay. The test is classed as functional. Conditions: Kasumi 1, 168 h.
Test [7] has as its system MOLM-13. Briefly: Antiproliferative activity against human MOLM-13 cells assessed as inhibition of cell growth incubated for 7 days by MTS reagent based assay. The settings on record: MOLM-13, 168 h. The test is classed as functional.
Test [8] relates to U-937. Briefly: Antiproliferative activity against human U-937 cells assessed as inhibition of cell growth incubated for 7 days by MTS reagent based assay. The test is classed as functional. The settings on record: time 7.0 day.
Test [9] has as its system SU-DHL-2. Briefly: Antiproliferative activity against human SU-DHL-2 cells assessed as inhibition of cell growth incubated for 7 days by MTS reagent based assay. Conditions: SU-DHL-2, 168 h. The test is classed as functional.
The test system of test [10] is SU-DHL-6. Description: Antiproliferative activity against human SU-DHL-6 cells assessed as inhibition of cell growth incubated for 7 days by MTS reagent based assay. The test is classed as functional. The settings on record: SU-DHL-6, 168 h.
Test [11] deals with OCI-Ly10. Briefly: Antiproliferative activity against human OCI-Ly10 cells assessed as inhibition of cell growth incubated for 7 days by MTS reagent based assay. It counts as functional. Conditions: OCI-Ly10, 168 h.
The target of test [12] is T1, Protein cereblon/Bromodomain-containing protein 9. Briefly: PROTAC activity at CRBN/BRD9 (unknown origin). The test is classed as protein assay.
Target sequence in this assay (Q9H8M2 whole entry): as the sequence (Q9H8M2 whole entry, looked up) above
Target sequence in this assay (Q96SW2 whole entry): as the sequence (Q96SW2 whole entry, looked up) above

Calls of active or inactive are those of the source. The calls are words filed in the database; no cut-off is given here.

`COc1cc(-c2cn(C)c(=O)c3ccccc23)cc(OC)c1CN1CCN(c2ccc(C(=O)NC3CCC(=O)NC3=O)nc2)CC1` (centres undefined): the IC50 (commonly the midpoint of a concentration-inhibition curve) is over 5 µM in test [1] and 4.51 µM in [2]. Also, the Activity in [3] is 65%; in [4] it was 18.3%; in test [5], 21.3%.

For `CCn1cc(-c2cccc(C(F)(F)F)c2)c2sc(C(=N)NC3CCS(=O)(=O)CC3)cc2c1=O`, the IC50 in test [6] worked out at 0.453 µM; in [7] it was 1.22 µM; in [2], 0.385 µM; in test [9] it was 1.59 µM; in test [10], 1.21 µM; in test [11], 2.71 µM. Also, the Activity result in test [8] is “Active; Weak Inhibitory Effect Observed”.

On to `COc1cc(-c2cn(C)c(=O)c3ccccc23)cc(OC)c1CN1CCC(CN2CCN(c3ccc(OC4CCC(=O)NC4=O)cc3)CC2)CC1` (centres undefined), for which the results for the IC50 in test [1] and in test [2] were over 5 µM and 0.0469 µM, respectively. Besides, the Activity in [3] is 98%; in test [4] it was 13%; in test [5], 89%.

In the case of `COc1cc(-c2cn(C)c(=O)c3ccccc23)cc(OC)c1CN1CCC(CN2CCN(c3ccc(C(=O)NC4CCC(=O)NC4=O)nc3)CC2)CC1` (centres undefined), the figures for the IC50 in test [1] and in test [2] were over 5 µM and 0.00531 µM, respectively. Besides, the figures for the Activity in test [3], in test [4] and in test [5] were 92%, 29.5% and 95.5%, respectively.

For the compound `COc1cc(-c2cn(C)c(=O)c3ccccc23)cc(OC)c1CN1CCC(CN2CCN(c3ccc(NC4CCC(=O)NC4=O)cn3)CC2)CC1` (centres undefined), the IC50 in test [1] is over 5 µM; in [2] it was 0.0119 µM. Also, the Activity was determined as 86.5% in test [3], 56% in test [4] and 85.5% in [5].

On to `COc1cc(-c2cn(C)c(=O)c3ccccc23)cc(OC)c1CN1CCN(c2ccc(NC3CCC(=O)NC3=O)cc2)CC1` (centres undefined), for which the IC50 in test [1] is over 5 µM; in test [2] it was 0.424 µM. Also, the Activity in test [3] stood at 80.5%; in [4], 45.5%; in [5], 66%.

In the case of `COc1cc(-c2cn(C)c(=O)c3ccccc23)cc(OC)c1CN1CCN(c2ccc(C(=O)NC3CCC(=O)NC3=O)cc2)CC1` (centres undefined), the IC50 in test [1] is over 5 µM; in test [2] it was 3.15 µM. The Activity in test [3] was determined as 35.7%; in test [4], 26.7%; in test [5], 32.3%.

In the case of `COc1cc(-c2cn(C)c(=O)c3ccccc23)cc(OC)c1CN1CCN(c2ccc(C3CCC(=O)NC3=O)cc2)CC1` (centres undefined), the IC50 was over 5 µM in [1] and 0.128 µM in [2]. The Activity is 83.7% in test [3], 65% in [4] and 87.3% in [5].

In the case of `COc1cc(-c2cn(C)c(=O)c3ccccc23)cc(OC)c1CN1CCN(c2ccc(N3CCC(=O)NC3=O)cc2)CC1`, the IC50 in test [1] is over 5 µM; in [2], 0.691 µM. The Activity in test [3] came out at 25%; in test [4], 12%; in test [5] it was 8%.

For `COc1cc(-c2cn(C)c(=O)c(C)c2C)cc(OC)c1CN1CC[C@H](N2CCN(c3ccc(N[C@H]4CCC(=O)NC4=O)cc3F)CC2)C(F)(F)C1` (racemic) [SENDEGOBRESIB], the IC50 in test [6] is 0.0146 µM; in [7], 0.0599 µM; in test [1], over 5 µM; in [2] it was 0.0353 µM; in test [9], 0.323 µM; in [10], 3.25 µM. In test [11], the IC50 is 1.24 µM. The Activity result is “Active; Weak Inhibitory Effect Observed” in test [8], 93.9% in [3], 6.9% in test [4] and 74.9% in test [5]. This compound also showed a DC50 in test [12] of 0.003 µM.

For the compound `COc1cc(-c2cn(C)c(=O)c3ccccc23)cc(OC)c1CN1CCC(c2ccc3c4c(cccc24)C(=O)N3C2CCC(=O)NC2=O)CC1` (centres undefined), the IC50 was over 5 µM in test [1] and 0.00244 µM in test [2]. The Activity in [3] was determined as 50.5%; in test [4] it was 79.5%; in test [5], 80.5%.

For `COc1cc(-c2cn(C)c(=O)c3ccccc23)cc(OC)c1CN1CCC(CN2CCN(c3ccc(NC4CCC(=O)NC4=O)cc3)CC2)CC1` (centres undefined), the values for the IC50 in test [1] and in test [2] were over 5 µM and 0.00561 µM, respectively. Moreover, the Activity worked out at 97.5% in test [3], 69.5% in test [4] and 96.5% in test [5].

Consider `COc1cc(-c2cn(C)c(=O)c3ccccc23)cc(OC)c1CN1CCN(c2ccc(OC3CCC(=O)NC3=O)cc2)CC1` (centres undefined), for which the values for the IC50 in [1] and in test [2] were over 5 µM and 3.61 µM, respectively. Further, the Activity came out at 80.5% in test [3], 32% in test [4] and 60.5% in test [5].

`COc1cc(-c2cn(C)c(=O)c3ccccc23)cc(OC)c1CN1CCN(c2ccc(NC3CCC(=O)NC3=O)cc2F)CC1` (centres undefined): the IC50 in test [1] is over 5 µM; in test [2], 0.0177 µM. The Activity turned out to be 86% in test [3], 34% in test [4] and 74.7% in test [5].

For the compound `COc1cc(-c2cn(C)c(=O)c3ccccc23)cc(OC)c1CN1CCN(c2ccc(C(=O)NC3CCC(=O)NC3=O)cn2)CC1` (centres undefined), the IC50 in test [1] was over 5 µM; in test [2], 2.49 µM. For the same compound, the Activity stood at 50% in [3], 33.3% in test [4] and 39.3% in [5].

Take `COc1cc(-c2cn(C)c(=O)c3ccccc23)cc(OC)c1CN1CCN(c2ccc(NC3CCC(=O)NC3=O)cn2)CC1` (centres undefined): the IC50 was over 5 µM in [1] and 1.67 µM in [2]. Also, the Activity in test [3] turned out to be 59.3%; in test [4] it was 41.7%; in test [5], 46.7%.

Values taken from ChEMBL document CHEMBL6096628, “Discovery of a Highly Potent and Selective BRD9 PROTAC Degrader Based on E3 Binder Investigation for the Treatment of Hematological Tumors” (J Med Chem, 2024).
